Columns and labels:
[1] = system: FaDu xenograft tumors; assay: Assessment of ACN as a hypoxia tracer in tumor-bearing mice; format: in vivo, BALB/c nude mice; settings: 80 mg/Kg intraperitoneally, 2 hours post-injection
Protocol: Female BALB/c nude mice (Charles River Laboratories) aged 6 weeks were used and cared for according to the CCAC guidelines. We used a biflanked sub-cutaneous tumor model where the tumor in the left flank was untreated (control) and the tumor in the right flank served as the ‘treatment’ group. We subcutaneously injected 6×10^6 FaDu cells in 0.1 ml of sterile 0.9% NaCl into the upper right flank to form palpable tumors. The tumors were measured daily until the volume reached 10 mm3. The mice were divided into 4 groups and injected intraperitoneally in 0.15 ml 0.9% saline with: 1-80 mg/Kg ACN, 2-80 mg/Kg pimonidazole (Hypoxyprobe), 3-80 mg/Kg ACN:pimonidazole in a 1:1 ratio and 4-0.9% saline control. Mice were sacrificed 2 hours post-injection, tumors removed and frozen in OCT. Seven micron serial sections were taken of each tumor, dried and stored at −80° C.
Tissue sections were air dried for 25 minutes, fixed for 5 minutes in −20° C. acetone; air dried 25 minutes and blocked in PBS with 1% BSA for 20 minutes. Sections were incubated with primary antibodies for small vessel endothelium [1:100 rabbit anti-CD34 (abcam)] or hypoxia [1:100 rabbit anti-pimonidazole Hypoxyprobe)] for 2 hours at room temperature, followed by 3 five minute washes in 1×PBS. […]

[2] = system: FaDu cells; assay: Comparison of hypoxia selective uptake of ACN and Pimonidazole in vitro; format: cell-based, human
Protocol: FaDu cells were grown on coverslips (as described above) and treated simultaneously with 100 μM ACN and 100 μM Pimonidazole. The cells were subsequently exposed to normoxic (20% Oxygen), hypoxic (1% Oxygen) or anoxic (0% Oxygen) conditions for 6 hours, and fixed in 2% PFA. Standard Pimonidazole IHC was performed as described elsewhere using an Alexafluor 647 labelled secondary antibody. Click chemistry was performed as previously described using an Alexafluor 555 conjugated alkyne followed by nuclear staining with Hoechst. Mounted coverslips on glass slides were imaged as described earlier.

[3] = system: human and murine cancer cell lines; settings: literature; cited from earlier work
[4] = system: FaDu tumors; assay: In vivo evaluation of radiosensitization therapy by IAZA using click mapping; parameters: species or system Nu/Nu mice
Protocol: Tissue sections were air dried for 25 minutes, fixed for 5 minutes in −20° C. acetone; air dried 25 minutes and blocked in PBS with 1% BSA for 20 minutes. Sections were incubated with primary antibodies for small vessel endothelium [1:100 rabbit anti-CD34 (abcam)] or hypoxia [1:100 rabbit anti-pimonidazole Hypoxyprobe)] for 2 hours at room temperature, followed by 3 five minute washes in 1×PBS. The secondary antibody (Alexafluor 647 goat anti-rabbit 1:1000 Molecular Probes with 1×DAPI to stain DNA) was incubated for 30 minutes at […] room temperature in the dark, followed by 3 five minute washes with 1×PBS. The Click-IT reaction cocktail was incubated with the sections for 30 minutes. Sections were washed 5 times with 1×PBS for 5 minutes and mounted using Mowiol 4-88 (Calbiochem) mounting media. Slides were stored at 4° C. until imaged. Images were obtained by tile scan with a Plan-Apochromat 10X/0.45 numerical aperture lens on a Zeiss 710 confocal microscope using Zen 2011 software. […]
Male Nu/Nu mice (Charles River Laboratories) aged 6 weeks were used and cared for according to the CCAC guidelines. […] The tumors were measured daily until the volume reached 0.4 cm3. […] Temperature and respiration were monitored and recorded every five minutes throughout the scans (Small animal Monitoring and Gating System, SA Instruments Inc.). […] Animals were monitored and tumors measured for up to 16 days. […]

[5] = system: FaDu cells; assay: Hypoxia-selective sub-cellular localization of A-TPZ, click chemistry; format: cell-based, human
Protocol: FaDu cells (˜0.5 million) were seeded on coverslips in 30 mm dishes and were incubated overnight at 37° C. with 5% CO2 to get attached to the surface. Cells were then treated with increasing concentrations (1-30 μM) of drug (reconstituted in DMSO at concentration of 0.5 M) and were incubated under normoxic and hypoxic (<0.1% O2) conditions for 24 hours. Post-treatment, cells were fixed with 2% paraformaldehyde for 20 minutes followed by blocking and permeabilization in 1% BSA and 0.1% Triton-X-100 for 20 minutes. Click reaction was performed in the presence of Alexa 594 alkyne using the Click-iT Cell Reaction Buffer Kit (Thermo Fisher Scientific, no: C10269), according to manufacturer's protocol. Nuclei were counterstained with Hoechst, and images were obtained using confocal microscopy.
FaDu cells were seeded on coverslips and were incubated overnight to adhere. The cells were then treated with increasing doses of A-TPZ for 24 hours under normoxic and hypoxic (<0.1% O2) conditions. Cells were fixed in 2% paraformaldehyde and Click chemistry was performed at room temperature for 30 minutes using Alexa 594 alkyne. Nuclei were counterstained with Hoechst, and images were obtained using confocal microscopy.

[6] = system: FaDu cells; assay: Crystal violet staining (CVS) assay; format: cell-based, human
Protocol: FaDu cells (3000 cells/well) were seeded on 96-well microtitre plates and were incubated overnight at 37° C. with 5% CO2 to get attached to the surface. Next day, the cells were treated with increasing doses of drug (1-100 μM) and the plates were incubated under normoxic (20% O2) and hypoxic (0.1% O2) conditions for 72 hours. Culture medium (DMEM and low glucose DMEM) without cells was set for background, according to the experimental set up. After the required incubation period, the media was aspirated, and the plates were allowed to dry for a few minutes followed by addition of crystal violet solution for 20 minutes in order to stain the cells. Subsequently, the dye was discarded, plates were washed with water and let to dry overnight. Methanol (150 μL) was added to the wells and incubated for 20 minutes, so as to dissolve the crystals. Absorbance of the samples was measured spectrophotometrically using an ELISA plate reader at a wavelength of 520 nm. The absorbance of background wavelength (media only) was subtracted from the other absorbance results.
FIG. 10 depicts hypoxic selective cytotoxicity of A-TPZ. […] In CVS assay (i), FaDu cells (3000 cells/well) were seeded on 96 well plates and were incubated overnight to adhere. The cells were then treated with increasing doses of A-TPZ and the plates were exposed to both normoxic (20% O2) and hypoxic (0.1% O2) conditions for 72 hours. Culture medium (DMEM) without cells was set for background. Media was aspirated post-treatment followed by addition of crystal violet solution to stain the cells. Crystals were dissolved using methanol and absorbance of the samples was measured spectrophotometrically. Error bars represent the standard error of the mean. In CFA, (ii), FaDu cells (optimum density-ranging from 300 to 3000 cells) were seeded on 60 mm plates and were incubated overnight to adhere. Next day, the cells were treated with increasing A-TPZ doses and the plates were exposed to both normoxic (20% O2) and hypoxic (0.5% O2) conditions for 24 hours. […] Colonies were stained with crystal violet solution and counted. […]

O=[N+]([O-])c1nccn1CC(O)CN1CCCCC1 (stereo not shown) [Pimonidazole, reference compound]
localization in tumor sections [1]: co-localize to hypoxic areas bordering necrotic regions
staining detected by oxygen condition ([2]; 100 μM of each compound, 6 h): detected in oxygen deprived cells
sub-cellular distribution of signal ([2]; hypoxic <0.1% O2 cells, 100 μM): mostly concentrated in the cytoplasm

O=[N+]([O-])c1nccn1[C@@H]1O[C@H](C[125I])[C@@H](O)[C@@H]1O [IAZA]
toxicity to cancer cell lines (reported) [3]: low toxicity
uptake by cells (reported) [3]: selectively taken up by hypoxic cells
effect on tumor and hypoxia, IAZA and radiation co-treated ([4]; 400 mg/Kg IAZA + single dose of 10 Gy radiation): both tumor shrinkage and reduced hypoxia
effect on tumor hypoxia, IAZA alone ([4]; 400 mg/Kg IAZA intraperitoneally, no radiation, ACN click mapping): had no effect on hypoxia

[N-]=[N+]=NCCOCCNc1n[n+]([O-])c2ccccc2[n+]1[O-] [A-TPZ, 3-(2-(2-Azidoethoxy)ethyl)amino-1,2,4-benzotriazine 1,4-dioxide]
dose dependence of signal intensity ([5]; 1-30 μM, hypoxia): dose-dependent
click fluorescence localization in hypoxic cells ([5]; hypoxia (<0.1 O2), 24 hours, 1-30 μM): selective sub-cellular localization
click fluorescence in normoxic drug treated cells ([5]; normoxic, 24 hours): No fluorescence
cytotoxicity under hypoxia (CVS) ([6]; 0.1% O2, 72 hours, 1-100 μM): selective cytotoxicity in low oxygen levels
toxicity in the normoxic group (CVS) ([6]; 20% O2, 72 hours): minimal toxicity
toxicity compared to parent compound TPZ ([6]; data not shown): slightly less toxic

Source: patent US12600742B2, “Markers, conjugates, compositions and methods for hypoxia imaging, mapping, and therapy” (WWIKY BIOSCIENCES INC., priority 2017, dated 2026)
